Source: paper PMC9609714, “Exploring Novel Pyridine Carboxamide Derivatives as Urease Inhibitors: Synthesis, Molecular Docking, Kinetic Studies and ADME Profile” (Pharmaceuticals, 2022)
Read-outs that look alike come from different tables or passages of the source.

Assays:
urease [1] = biological target: T1, urease (Canavalia ensiformis, UniProt P07374); assay: biochemical
Procedure: The indophenol method was adopted for the estimation of urease inhibition activity for synthesized compounds with minor modification. In the assay, the total volume was kept at 100 µL which was composed of 10 µL urease having a concentration of 5 U/mL, 40 µL of phosphate buffer (0.01mM K2HPO4+ EDTA + […]); pH was adjusted to 8.15 using 40 µL of phenol reagent (1%, phenol, and sodium nitroprusside) and alkali reagent. This alkali reagent was composed of 0.5% of sodium hydroxide and 0.1% of active chloride (NaOCl). For the determination of urease activity, the test compound and enzyme were incubated for 30 min at 37 °C in the assay buffer; then phenol/alkali reagent was added. All reactions were performed in 96 well plates in a triplicate manner. Absorbance was measured at a wavelength of 625 nm using the instrument FLUOstar® Omega (BMG LABTECH, Ortenberg, Germany). Initially, the percentage inhibition was estimated for the test compounds and compared with a standard inhibitor of urease (thioureas). […] GraphPad (PRISM 8.0, San Diego, CA, USA) was utilized for the calculations of IC50 values. The synthesized compounds were dissolved in absolute ethanol for the percentage inhibition assay whereas dilutions were prepared in deionized water by keeping the final concentration at up to 1%. The standard inhibitor (thioureas) was used as a positive control in the assay whereas 1% ethanol was employed as a negative control during the assay.

urease [2] = biological target: T1, urease; assay: Enzyme kinetics study (Lineweaver–Burk plot) of urease inhibition; assay type: biochemical; details: compound 0.10-1.6 µM
Excerpt: By calculating the Lineweaver–Burk plot, the competitive mode of inhibition was shown by the compound Rx-6.

T1 sequence (P07374 whole entry, looked up): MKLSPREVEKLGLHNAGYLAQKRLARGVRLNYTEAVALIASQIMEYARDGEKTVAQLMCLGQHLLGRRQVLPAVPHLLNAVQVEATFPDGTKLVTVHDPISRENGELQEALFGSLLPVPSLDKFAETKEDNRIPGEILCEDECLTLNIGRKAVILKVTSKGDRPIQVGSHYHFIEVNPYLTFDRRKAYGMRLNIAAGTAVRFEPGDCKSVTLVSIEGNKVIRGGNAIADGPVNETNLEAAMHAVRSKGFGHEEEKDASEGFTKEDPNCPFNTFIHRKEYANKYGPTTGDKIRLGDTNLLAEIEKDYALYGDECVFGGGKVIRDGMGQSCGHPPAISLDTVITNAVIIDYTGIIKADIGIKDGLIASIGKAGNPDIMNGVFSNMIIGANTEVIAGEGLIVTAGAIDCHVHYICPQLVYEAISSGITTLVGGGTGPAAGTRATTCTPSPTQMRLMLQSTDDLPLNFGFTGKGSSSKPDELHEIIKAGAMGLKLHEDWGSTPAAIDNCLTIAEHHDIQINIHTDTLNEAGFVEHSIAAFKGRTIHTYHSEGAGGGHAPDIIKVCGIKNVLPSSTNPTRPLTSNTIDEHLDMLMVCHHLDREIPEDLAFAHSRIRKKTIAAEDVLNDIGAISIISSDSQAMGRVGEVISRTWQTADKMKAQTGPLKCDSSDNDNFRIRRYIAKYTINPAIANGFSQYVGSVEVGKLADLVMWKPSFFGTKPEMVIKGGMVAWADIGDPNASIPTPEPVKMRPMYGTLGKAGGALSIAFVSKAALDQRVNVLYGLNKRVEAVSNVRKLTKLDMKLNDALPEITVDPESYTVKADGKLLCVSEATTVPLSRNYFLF

| Structure (SMILES) | IC50 (urease [1]) [µM] | melting point [°C] | mode of inhibition (Lineweaver–Burk plot) (urease [2]) | IC50 (urease [1]; urease 5 U/mL, 30 min at 37 °C, pH 8.15, triplicate, read-out: IC50 ± SEM) [µM] |
| --- | --- | --- | --- | --- |
| N/C(S)=N/N=C/c1ccccn1 [Rx-1, Pyridine-2-yl-methylene thiosemicarbazide] | 3.23 ± 0.015 | – | – | – |
| Cc1cccc(/C=N/NC(N)=S)n1 [Rx-2, 6-Methylpyridine-2-yl methylene hydrazine-1-carbothioamide] | 6.41 ± 0.023 | – | – | – |
| NC(=S)N/N=C/c1cccc(Br)n1 [Rx-3, 6-Bromopyridine-2-yl methylene hydrazine-1-carbothioamide] | 3.13 ± 0.034 | 192 to 194 | – | – |
| COc1cccc(/C=N/NC(N)=S)n1 [Rx-4, 6-Methoxypyridine-2-yl methylene thiosemicarbazide] | 4.21 ± 0.022 | – | – | – |
| NC(=S)N/N=C/c1cccc(C(F)(F)F)n1 [Rx-5, 6-Trifluoromethyl pyridine-2-yl methylene hydrazine-1-carbothioamide] | 4.93 ± 0.012 | – | – | – |
| NC(=S)N/N=C/c1ccc(Cl)cn1 [Rx-6, 5-Chloropyridine-2-yl methylene hydrazinecarbothioamide] | 1.07 ± 0.043 | 244 to 246 | competitive | – |
| NC(=O)N/N=C/c1ccccn1 [Rx-7, 2-Pyridine-2-yl-methylene hydrazine carboxamide] | 2.18 ± 0.058 | – | – | – |
| Cc1cccc(/C=N/NC(N)=O)n1 [Rx-8, 6-Methylpyridine-2-yl methylene hydrazinecarboxamide] | 3.41 ± 0.011 | 218 to 219 | – | – |
| NC(=O)N/N=C/c1cccc(Br)n1 [Rx-9, 6-Bromopyridine-2-yl methylene hydrazinecarboxamide] | 14.49 ± 0.067 | 231 to 233 | – | – |
| COc1cccc(/C=N/NC(N)=O)n1 [Rx-10, 6-Methoxypyridine-2-yl methylene hydrazine carboxamide] | 5.52 ± 0.072 | 193 | – | – |
| NC(=O)N/N=C/c1cccc(C(F)(F)F)n1 [Rx-11, 6-Trifluoromethyl pyridine-2-yl methylene hydrazine carboxamide] | 5.96 ± 0.005 | 233 to 235 | – | – |
| NC(=O)N/N=C/c1ccc(Cl)cn1 [Rx-12, 5-Chloropyridine-2yl-methylene hydrazine carboxamide] | 4.07 ± 0.003 | 221 to 223 | – | – |
| NC(N)=S [Thiourea, reference compound] | – | – | – | 18.93 ± 0.004 |
